In PubChem BioAssay AID1963435 (Molecular Pharmacology Branch, DTP, NCI, 2024):
Values joined by “and” are separate entries in the source; they are usually repeats but may differ in a detail not shown here. Equal values may be shown once.

Test system: PANC-1 complex spheroid growth, percent test/control
Assay: Anticancer human tumor PANC-1 cell line growth inhibition [Asc];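 also: spheroids exposed to agents for 7 days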;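 as to viability, T/C: percent viability relative to DMSO vehicle wells taken as 100%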
Conditions: for viability, T/C: stronger effect = lower value
Method: Multicellular complex tumor spheroid response to apoptosis pathway targeting inhibitors Alrizomadlin, Pelcitoclax, and Dasminapant in combination with a variety of drugs and investigational agents in selected tumor cell lines
The MDM2 inhibitor alrizomadlin, the Bcl-2/Bcl-xL inhibitor pelcitoclax, and the IAPs inhibitor dasminapant were evaluated both individually and in combination with standard of care and investigational anticancer small molecules within a complex spheroid model of solid tumors. . Complex spheroids include a stromal component modeled by human endothelial cells (HUVEC) and fibroblasts modeled by human mesenchymal stem cells (MSCs). The concentration ranges selected for each drug and investigational agent were based upon clinically achievable concentrations if the clinical Cmax of the agent was known.
Compounds. The drugs and investigational agents: alrizomadlin (APG-115; NSC831270), pelcitoclax (APG-1252; NSC835773), dasminapant (APG-1387;NSC834197), TAK-243 (NSC785004), copanlisib (NSC809693), olaparib (NSC753686), talazoparib (NSC767125), cobimetinib (NSC 768068), eltanexor (KPT-8602, NSC 794443), abemaciclib (NSC 768073), sotorasib (NSC818433), adagrasib (NSC 831453), MRTX-1133 (NSC 836407), Iadademestat (ORY1001, NSC 806812), and RMC-4630 (NSC839698), were obtained from the NCI Developmental Therapeutics Program Chemical Repository. The FDA-approved anticancer drug set is available from the Developmental Therapeutics Program at https://dtp.cancer.gov/organization/dscb/obtaining/available plates.htm. […] The stock solutions were prepared in dimethyl sulfoxide (DMSO, Sigma-Aldrich, St. Louis, MO, cat. D2650) at 800-fold the tested concentration and stored at -70 degrees C prior to their use. All drugs and investigational agents were tested over a range starting from a high concentration at or near the clinical Cmax and decreasing in half-log increments. If the clinical Cmax for an agent had not been determined, the highest concentration tested was 10 microM.
The patient-derived cancer (PDC) cell lines include five colon adenocarcinomas: 186277-243-T-J2-PDC, 616215-338-R-J1-PDC, 439559-082-T-J2-PDC, 463943-066-T-J2-PDC, and 519858-162-T-J1-PDC; three pancreatic carcinomas: 323965-272-R-J2-PDC, 521955-158-R6-J3-PDC, and 521955-158-R2-J5-PDC; two uterine sarcomas: 327498-152-R-J2-PDC and 993429-296-R-J1-PDC; two rhabdomyosarcomas: 755483-174-R-J1-PDC and 772245-204-R-J1-PDC; two soft tissue sarcomas: 126254-015-R-J1-PDC and 494315-158-R-J1-PDC; two malignant fibrous histiocytomas: 317291-083-R-J1-PDC and 596521-263-R-J1-PDC; two breast carcinomas: 171881-019-R-J1-PDC and 885512-296-R-J2-PDC; and one ovarian carcinoma: 6556581-035-R-J-PDC were obtained from the NCI PDMR, (https://pdmr.cancer.gov). The established cell lines HSSY-2 synovial sarcoma (RRID:CVCL 8719), SYO-1 synovial sarcoma (RRID:CVCL_7146), MPNST malignant peripheral neural sheath tumor were obtained from the Sloan Kettering Institute. The following established cell lines were purchased from the American Type Culture Collection (ATCC, Manassas, VA), Sor the received from the NCI repository:, PANC-1 pancreatic carcinoma (CRL-1469, RRID:CVCL_0480), OVCAR-5 ovarian carcinoma (RRID:CVCL_1628), OVCAR-8 ovarian carcinoma (RRID:CVCL_1629), , MCF-7 breast carcinoma (CRL-12584, RRID:CVCL_0031), MDA-MB-231 breast carcinoma (CRL-12532, RRID:CVCL_0062), NCI-H1876 small cell lung carcinoma (CRL-5902, RRID:CVCL_1503), NCI-H510A small cell lung carcinoma (HTB-184, RRID:CVCL_1565), NCI-H1417 (CRL-5869, RRID:CVCL_1469), and NCI-H196 small cell lung carcinoma (CRL-5823, RRID:CVCL_1509). Dr. Peter Houghton (Greehey Children's Cancer Research Institute, University of Texas Health Science Center, San Antonio, TX) provided Rh-18 rhabdomyosarcoma (RRID:CVCL_1659). Pooled donor human umbilical vein endothelial cells (HUVEC, Lonza, cat. CC-2519) and human mesenchymal stem cells (hMSC, Lonza, cat. PT-2501) were purchased from Lonza (Walkersville, MD).
Cell Culture. […]

[1] = curve of first compound, second compound 0.0316 µM
[2] = curve of first compound, second compound 0.1 µM
[3] = curve of first compound, second compound 0.316 µM
[4] = curve of first compound, second compound 1 µM
[5] = second compound 0.0316 µM, first compound 0.00949 µM
[6] = second compound 0.0316 µM, first compound 0.03 µM
[7] = second compound 0.0316 µM, first compound 0.0949 µM
[8] = second compound 0.0316 µM, first compound 0.3 µM
[9] = second compound 0.0316 µM, first compound 0.949 µM
[10] = second compound 0.0316 µM, first compound 3 µM
[11] = second compound 0.1 µM, first compound 0.00949 µM
[12] = second compound 0.1 µM, first compound 0.03 µM
[13] = second compound 0.1 µM, first compound 0.0949 µM
[14] = second compound 0.1 µM, first compound 0.3 µM
[15] = second compound 0.1 µM, first compound 0.949 µM
[16] = second compound 0.1 µM, first compound 3 µM
[17] = second compound 0.316 µM, first compound 0.00949 µM
[18] = second compound 0.316 µM, first compound 0.03 µM
[19] = second compound 0.316 µM, first compound 0.0949 µM
[20] = second compound 0.316 µM, first compound 0.3 µM
[21] = second compound 0.316 µM, first compound 0.949 µM
[22] = second compound 0.316 µM, first compound 3 µM
[23] = second compound 1 µM, first compound 0.00949 µM
[24] = second compound 1 µM, first compound 0.03 µM
[25] = second compound 1 µM, first compound 0.0949 µM
[26] = second compound 1 µM, first compound 0.3 µM
[27] = second compound 1 µM, first compound 0.949 µM
[28] = second compound 1 µM, first compound 3 µM

NC1CCC(NC2CC2c2ccccc2)CC1 (stereo unspecified)
viability, T/C (compound 0.000316 µM): 98.4% and 88.6% and 107%
viability, T/C (compound 0.001 µM): 100% and 93.4% and 91.5%
viability, T/C (compound 0.00316 µM): 100% and 110% and 93.7%
viability, T/C (compound 0.01 µM): 98.2% and 85.6% and 90.5%
viability, T/C (compound 0.0316 µM): 93.5% and 101% and 93.9%
viability, T/C (compound 0.1 µM): 107% and 91.3% and 97.6%
IC50 (curve of compound): > 0.1 µM

CNC(C)C(=O)NC1CN(S(=O)(=O)c2cccc(S(=O)(=O)N3CCC4CCC(C(=O)NC(c5ccccc5)c5ccccc5)N4C(=O)C(NC(=O)C(C)NC)C3)c2)CCC2CCC(C(=O)NC(c3ccccc3)c3ccccc3)N2C1=O (stereo unspecified)
viability, T/C (compound 0.00316 µM): 107% [middle of 9 runs]
viability, T/C (compound 0.01 µM): 102% [middle of 9 runs]
viability, T/C (compound 0.0316 µM): 98.1% [middle of 9 runs]
viability, T/C (compound 0.1 µM): 96.1% [middle of 9 runs]
viability, T/C (compound 0.316 µM): 93.5% [middle of 9 runs]
viability, T/C (compound 1 µM): 89.2% [middle of 9 runs]
IC50 (compound alone, run of 11/15/2022): > 1 µM
IC50 (curve of compound): > 1 µM

Cc1nc(N2CCC3(CC2)COC(C)C3N)c(CO)nc1Sc1ccnc(N)c1Cl (stereo unspecified) + CNC(C)C(=O)NC1CN(S(=O)(=O)c2cccc(S(=O)(=O)N3CCC4CCC(C(=O)NC(c5ccccc5)c5ccccc5)N4C(=O)C(NC(=O)C(C)NC)C3)c2)CCC2CCC(C(=O)NC(c3ccccc3)c3ccccc3)N2C1=O
IC50 (curve of first compound, second compound 0.00316 µM): > 3 µM
IC50 (curve of first compound, second compound 0.01 µM): > 3 µM
IC50 [1]: > 3 µM
IC50 [2]: > 3 µM
IC50 [3]: > 3 µM
IC50 [4]: > 3 µM
viability, T/C (second compound 0.00316 µM, first compound 0.00949 µM): 94.8%
viability, T/C (second compound 0.00316 µM, first compound 0.03 µM): 85%
viability, T/C (second compound 0.00316 µM, first compound 0.0949 µM): 96.7%
viability, T/C (second compound 0.00316 µM, first compound 0.3 µM): 84.3%
viability, T/C (second compound 0.00316 µM, first compound 0.949 µM): 87.7%
viability, T/C (second compound 0.00316 µM, first compound 3 µM): 87.1%
viability, T/C (second compound 0.01 µM, first compound 0.00949 µM): 91.1%
viability, T/C (second compound 0.01 µM, first compound 0.03 µM): 82.6%
viability, T/C (second compound 0.01 µM, first compound 0.0949 µM): 79.7%
viability, T/C (second compound 0.01 µM, first compound 0.3 µM): 89.4%
viability, T/C (second compound 0.01 µM, first compound 0.949 µM): 85.8%
viability, T/C (second compound 0.01 µM, first compound 3 µM): 95.1%
viability, T/C [5]: 93.4%
viability, T/C [6]: 79.9%
viability, T/C [7]: 92.8%
viability, T/C [8]: 86.3%
viability, T/C [9]: 87.6%
viability, T/C [10]: 78.9%
viability, T/C [11]: 85.3%
viability, T/C [12]: 93%
viability, T/C [13]: 90%
viability, T/C [14]: 83.8%
viability, T/C [15]: 90.9%
viability, T/C [16]: 89.5%
viability, T/C [17]: 89.5%
viability, T/C [18]: 84.1%
viability, T/C [19]: 86.7%
viability, T/C [20]: 84.4%
viability, T/C [21]: 83.4%
viability, T/C [22]: 81.2%
viability, T/C [23]: 86.5%
viability, T/C [24]: 89.8%
viability, T/C [25]: 82.6%
viability, T/C [26]: 82.7%
viability, T/C [27]: 75.6%
viability, T/C [28]: 85.9%

NC(=O)C(=Cn1cnc(-c2cc(C(F)(F)F)cc(C(F)(F)F)c2)n1)c1cncnc1
viability, T/C (compound 0.000949 µM): 99.7% and 95.2% and 104%
viability, T/C (compound 0.003 µM): 88.1% and 92.4% and 96.4%
viability, T/C (compound 0.00949 µM): 92% and 89% and 111%
viability, T/C (compound 0.03 µM): 89.8% and 103% and 102%
viability, T/C (compound 0.0949 µM): 113% and 114% and 130%
viability, T/C (compound 0.3 µM): 92.5% and 100% and 118%
IC50 (curve of compound): > 0.3 µM

Cc1nc(N2CCC3(CC2)COC(C)C3N)c(CO)nc1Sc1ccnc(N)c1Cl (stereo unspecified) + Cc1c(S(C)(=O)=O)c(-c2cc(F)cc(N3CCN(c4ccc(NS(=O)(=O)c5ccc(NC(CCN6CCC(C(=O)OCCCP(=O)(O)O)CC6)CSc6ccccc6)c(S(=O)(=O)C(F)(F)F)c5)cc4)CC3)c2)c(-c2ccc(Cl)cc2)n1C(C)C
IC50 [1]: > 3 µM
IC50 [2]: > 3 µM
IC50 [3]: > 3 µM
IC50 [4]: > 3 µM
IC50 (curve of first compound, second compound 3.16 µM): > 3 µM
IC50 (curve of first compound, second compound 10 µM): > 3 µM
viability, T/C [5]: 87.6%
viability, T/C [6]: 96.6%
viability, T/C [7]: 88.2%
viability, T/C [8]: 94.1%
viability, T/C [9]: 89.5%
viability, T/C [10]: 95.2%
viability, T/C [11]: 92.8%
viability, T/C [12]: 88.3%
viability, T/C [13]: 83.3%
viability, T/C [14]: 90.1%
viability, T/C [15]: 87.8%
viability, T/C [16]: 84.7%
viability, T/C [17]: 103%
viability, T/C [18]: 93.4%
viability, T/C [19]: 89.8%
viability, T/C [20]: 87.6%
viability, T/C [21]: 91.8%
viability, T/C [22]: 86.7%
viability, T/C [23]: 102%
viability, T/C [24]: 91.8%
viability, T/C [25]: 85.9%
viability, T/C [26]: 84.5%
viability, T/C [27]: 88.2%
viability, T/C [28]: 85.5%
viability, T/C (second compound 3.16 µM, first compound 0.00949 µM): 101%
viability, T/C (second compound 3.16 µM, first compound 0.03 µM): 94.5%
viability, T/C (second compound 3.16 µM, first compound 0.0949 µM): 86.2%
viability, T/C (second compound 3.16 µM, first compound 0.3 µM): 92.9%
viability, T/C (second compound 3.16 µM, first compound 0.949 µM): 84.6%
viability, T/C (second compound 3.16 µM, first compound 3 µM): 77.8%
viability, T/C (second compound 10 µM, first compound 0.00949 µM): 175%
viability, T/C (second compound 10 µM, first compound 0.03 µM): 177%
viability, T/C (second compound 10 µM, first compound 0.0949 µM): 161%
viability, T/C (second compound 10 µM, first compound 0.3 µM): 161%
viability, T/C (second compound 10 µM, first compound 0.949 µM): 164%
viability, T/C (second compound 10 µM, first compound 3 µM): 147%
